Test results from patent publication US20120244089A1, “USE OF THIAZOLE COMPOUND IN FLAVOR APPLICATIONS” (priority 2009, published 2012).
Entries after “also recorded” stand apart in the source; their conditions may differ.

How the values were obtained:
[1] = Flavor description in water; settings: 1 ppb
[2] = Flavor evaluation in a dairy product sample (mixed berry yogurt); settings: 5 ppb
Protocol: The flavor properties of 2-ethyl-4-methyl-2,5-dihydro-thiazole were evaluated in a dairy product sample. A mixed berry yogurt sample was used whose ingredients included cultured pasteurized grade A nonfat milk, high fructose corn syrup, modified corn starch, nonfat milk, kosher gelatin, corn starch, tricalcium phosphate, natural flavor, potassium sorbate added to maintain freshness, sucralose (splenda brand,) acesulfame potassium, colored with annatto extract, vitamin A acetate, and vitamin D3.

[3] = Flavor evaluation in a soft drink sample (orange soda); settings: 5 ppb
Protocol: The flavor properties of 2-ethyl-4-methyl-2,5-dihydro-thiazole were evaluated in a soft drink sample. An orange soda was used whose ingredients included carbonated water, high fructose corn syrup, citric acid, potassium benzoate, gum acacia, natural flavor, ester gum, yellow 6, brominated vegetable oil, and red 40.

[4] = Flavor evaluation in water by a trained sensory panel, 9-point hedonic scale; settings: for Flavor Intensity: 9-point hedonic scale
Protocol: The flavor properties of 2-ethyl-4-methyl-2,5-dihydro-thiazole (Formula I), 4-ethyl-2-methyl-3-thiazole (Formula II), and 4-methyl-2-propyl-2,5-dihydro-thiazole (Formula III) in water were evaluated by a trained sensory panel using the 9-point hedonic scale.

[5] = Flavor evaluation in an oatmeal sample; settings: plain instant oatmeal
Protocol: The flavor properties of 2-ethyl-4-methyl-2,5-dihydro-thiazole were evaluated in an oatmeal sample. Commercially available plain instant oatmeal was used whose ingredients included whole grain rolled oats, calcium carbonate, salt, guar gum, caramel color, reduced iron, niacinamide, vitamin A, palmitate, pyridoxine, hydrochloride, riboflavin, thiamin mononitrate, and folic acid.

[6] = Flavor evaluation in a beef broth sample; settings: 4 ppb
Protocol: The flavor properties of 2-ethyl-4-methyl-2,5-dihydro-thiazole were evaluated in a beef broth sample. The beef broth sample included beef broth and less than 1% of the following: salt, MSG, hydrolyzed corn protein, hydrolyzed soy protein, hydrolyzed wheat protein, dextrose, onion powder, autolyzed yeast extract, caramel color, partially hydrogenated soybean oil, natural flavor, thiamine hydrochloride, disodium inosinate, and disodium guanylate.

CCC1N=C(C)CS1 (stereo not shown) [Formula I, 2-ethyl-4-methyl-2,5-dihydro-thiazole]
Flavor notes [1]: tropical fruit, catty, peach, and berry flavor notes | Flavor effect [2]: boosted the fruity note and imparted a peach note | Flavor effect [3]: provided the feel of a tangerine soda and more natural taste and having cut the acidity | Flavor Profile ([4]; 100 ppb): Tropical, fruit, peach,; also recorded: slightly catty, and meaty; also recorded: Very strong | Flavor Intensity ([4]; 100 ppb): 7.11 | Flavor character, comparison with analogs ([4]; summary of the panel results): unexpected strong and long-lasting fruity character; also recorded: superior to all other structurally closely related analogs | Flavor effect ([5]; 1 ppb): added faint sulfurous note and synergized with grain note | Flavor effect ([5]; 5 ppb): sulfurous and peach notes | Flavor effect [6]: boosted the roast note and imparted additional tropical note

CCCC1N=C(C)CS1 (stereo not shown) [Formula III, 4-Methyl-2-propyl-2,5-dihydro-thiazole]
Flavor Profile ([4]; 350 ppb): Sulfury, nutty, and skunk; also recorded: Strong | Flavor Intensity ([4]; 350 ppb): 3.33

CCC1=NC(C)SC1 (stereo not shown) [Formula II, 4-Ethyl-2-methyl-2,5-dihydro-thiazole]
Flavor Profile ([4]; 1 ppm): Nutty and cabbage | Flavor Intensity ([4]; 1 ppm): 1
